From US20220098203A1 (priority 2018, published 2022) come the findings set out here.

SMILES strings stand for the structures.

Assay [1] relates to HCT116 MTAP+/+. Put plainly: Inhibition of cellular proliferation (Cell Titer Glo), HCT116 MTAP+/+. Format: cell-based. As to conditions: Homo sapiens, HCT-116, 96 h, Table 5a, 4 days, read-out: 4 Day Relative Growth Inhibition (MTAP +/+). The method in brief:
(§1)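 After 4 days of compound exposure at 37 °C, starting 24 h after plating, growth of the MTAP-wildtype and MTAP-deleted HCT116 pair was measured as ATP luminescence (CellTiter-Glo). The proliferation index was signal minus no-cell blank, divided by blank-corrected 0.2% DMSO control.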

In assay [2] the test system is HCT116 MTAP-/-. Put plainly: Inhibition of cellular proliferation (Cell Titer Glo), HCT116 MTAP-/-. The following applies: Homo sapiens, HCT-116, 96 h, Table 5a, 4 days, read-out: 4 Day Relative Growth Inhibition (MTAP −/−). Format: cell-based, human. The method in brief:
as §1

Assay [3] concerns the target T1, MAT2A homodimer (Homo sapiens, UniProt P31153).
T1 construct: inferred from the Ni sepharose purification and imidazole elution; made in house; host or cells: SF9 insect cells, recombinant baculovirus (Bac to Bac, pFASTBAC1)
Put plainly: MAT2A biochemical assay (liberated phosphate, PiColorLock Gold). The following applies: Table 5a; MAT2A biochemical assay; read-out: Enzyme Inhibition. The method in brief: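 Readout is liberated phosphate (PiColorLock Gold), stoichiometric with SAM production, quantified against a potassium phosphate standard curve. Enzyme: recombinant MAT2A homodimer from Sf9, equilibrated 60 min at 25 °C with compound before 60 min reaction with substrate mix containing 500 μM ATP and 400 μM L-methionine.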

Assay [4] concerns SAM in HCT116 MTAP-deleted cells. Put plainly: Cellular assay of target engagement (SAM), LC-MS/MS. As to conditions: Homo sapiens, HCT-116, Table 5a, 72 h, read-out: Cell 72 h SAM Inhibition (MTAP −/−). Format: cell-based, human. The method in brief:
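Target engagement was read as intracellular SAM, measured by LC-MS/MS with d3-SAM as internal standard in methanol/acetic acid extracts. These came from MTAP-deleted HCT116 colon carcinoma cells exposed to inhibitor for 72 hrs.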

T1 sequence (P31153 whole entry): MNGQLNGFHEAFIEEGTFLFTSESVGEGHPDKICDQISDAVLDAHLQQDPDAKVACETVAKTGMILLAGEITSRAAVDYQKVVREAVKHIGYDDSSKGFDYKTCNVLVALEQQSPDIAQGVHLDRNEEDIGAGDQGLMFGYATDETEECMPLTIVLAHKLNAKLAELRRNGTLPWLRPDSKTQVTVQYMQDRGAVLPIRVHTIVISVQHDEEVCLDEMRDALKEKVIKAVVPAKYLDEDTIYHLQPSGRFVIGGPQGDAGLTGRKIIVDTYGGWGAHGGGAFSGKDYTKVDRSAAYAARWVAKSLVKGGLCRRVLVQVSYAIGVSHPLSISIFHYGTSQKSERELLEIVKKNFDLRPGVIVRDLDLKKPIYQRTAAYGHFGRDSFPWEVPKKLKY

With `[2H]C([2H])([2H])Oc1ccc(N2C(=O)N(c3ccc4nn(C)cc4c3)Cc3cnc(NCC)nc32)cc1` [Example 419, 7-(ethylamino)-1-(4-(methoxy-d3)phenyl)-3-(2-methyl-2H-indazol-5-yl)-3,4-dihydropyrimido[4,5-d]pyrimidin-2(1H)-one], the IC50 in assay [1] is 0.1 to 1 µM; in assay [2], 0.1 to 1 µM; in assay [3], less than 0.1 µM; in assay [4] it was 0.1 to 1 µM.

On to `[2H]C([2H])([2H])Oc1ccc(N2C(=O)N(c3ccc4nn(C)cc4c3)Cc3cnc(NCC(F)F)nc32)cc1` [Example 420, 7-((2,2-difluoroethyl)amino)-1-(4-(methoxy-d3)phenyl)-3-(2-methyl-2H-indazol-5-yl)-3,4-dihydropyrimido[4,5-d]pyrimidin-2(1H)-one], for which the IC50 in assay [1] is 0.1 to 1 µM; in assay [2] it was 0.1 to 1 µM; in assay [3], less than 0.1 µM; in assay [4] it was less than 0.1 µM.

Regarding `[2H]C([2H])([2H])Oc1ccc(N2C(=O)N(c3ccc4nn(C)cc4c3)Cc3cnc(NCC(F)(F)F)nc32)cc1` [Example 421, 1-(4-(methoxy-d3)phenyl)-3-(2-methyl-2H-indazol-5-yl)-7-((2,2,2-trifluoroethyl)amino)-3,4-dihydropyrimido[4,5-d]pyrimidin-2(1H)-one], the IC50 was greater than 1 µM in assay [1], less than 0.1 µM in assay [2], less than 0.1 µM in assay [3] and less than 0.1 µM in assay [4].

As for `COc1ccc(N2C(=O)N(c3ccc4nn(C)cc4c3)Cc3cnc(NCC(F)(F)F)nc32)cc1` [Example 422, 1-(4-methoxyphenyl)-3-(2-methyl-2H-indazol-5-yl)-7-((2,2,2-trifluoroethyl)amino)-3,4-dihydropyrimido[4,5-d]pyrimidin2(1H)-one], the IC50 was greater than 1 µM in assay [1], less than 0.1 µM in assay [2], less than 0.1 µM in assay [3] and less than 0.1 µM in assay [4].

For the molecule `[2H]C([2H])([2H])Oc1ccc(N2C(=O)N(c3ccc4nn(C([2H])([2H])[2H])cc4c3)Cc3cnc(NCC(F)(F)F)nc32)cc1` [Example 423, 1-(4-(methoxy-d3)phenyl)-3-(2-(methyl-d3)-2H-indazol-5-yl)-7-((2,2,2-trifluoroethyl)amino)-3,4-dihydropyrimido[4,5-d]pyrimidin2(1H)-one], the IC50 in assay [1] is greater than 1 µM; in assay [2] it was less than 0.1 µM; in assay [3] it was less than 0.1 µM; in assay [4], less than 0.1 µM.

Regarding `Cc1nc2ccc(N3Cc4cnc(NCC(F)(F)F)nc4N(c4ccc(OC(F)F)cc4)C3=O)cc2n1C` [Example 424], the IC50 in assay [1] was greater than 1 µM; in assay [2], 0.1 to 1 µM; in assay [3], less than 0.1 µM; in assay [4], less than 0.1 µM.

Consider `Cn1cc2cc(N3Cc4cnc(NCC(F)(F)F)nc4N(c4ccc(Br)cc4)C3=O)ccc2n1` [Example 425, 1-(4-bromophenyl)-3-(2-methyl-2H-indazol-5-yl)-7-((2,2,2-trifluoroethyl)amino)-3,4-dihydropyrimido[4,5-d]pyrimidin-2(1H)-one], for which the IC50 in assay [1] was greater than 1 µM; in assay [2], less than 0.1 µM; in assay [3], less than 0.1 µM; in assay [4], less than 0.1 µM.

With `Cn1cc2cc(N3Cc4ncc(NCC(F)(F)F)cc4N(c4ccc(OC(F)F)cc4)C3=O)ccc2n1` [Example 428, 1-(4-(difluoromethoxy)phenyl)-3-(2-methyl-2H-indazol-5-yl)-7-((2,2,2-trifluoroethyl)amino)-3,4-dihydropyrido[3,2-d]pyrimidin-2(1H)-one], the IC50 in assay [1] was greater than 1 µM; in assay [2] it was less than 0.1 µM; in assay [3], less than 0.1 µM; in assay [4], less than 0.1 µM.

Regarding `CO[C@H]1CC[C@H](N2C(=O)N(c3ccc4nn(C)cc4c3)Cc3ccc(OCC(F)F)nc32)CC1` [Example 429, 7-(2,2-difluoroethoxy)-1-(trans-4-methoxycyclohexyl)-3-(2-methyl-2H-indazol-5-yl)-3,4-dihydropyrido[2,3-d]pyrimidin-2(1H)-one], the IC50 was greater than 1 µM in assay [1], 0.1 to 1 µM in assay [2], less than 0.1 µM in assay [3] and 0.1 to 1 µM in assay [4].

Consider `[2H]C([2H])([2H])Oc1ccc(N2C(=O)N(c3ccc4nn(C)cc4c3)Cc3c(N)nc(NCC(F)(F)F)nc32)cc1` [Example 430, 5-amino-1-(4-(methoxy-d3)phenyl)-3-(2-methyl-2H-indazol-5-yl)-7-((2,2,2-trifluoroethyl)amino)-3,4-dihydropyrimido[4,5-d]pyrimidin-2(1H)-one], for which the IC50 in assay [1] was greater than 1 µM; in assay [2] it was less than 0.1 µM; in assay [3], less than 0.1 µM; in assay [4], less than 0.1 µM.

With `[2H]C([2H])([2H])Oc1ccc(N2C(=O)N(c3ccc4nc(OC)n(C)c4c3)Cc3ccc(OCC(F)F)nc32)cc1` [Example 431, 7-(2,2-difluoroethoxy)-3-(2-methoxy-1-methyl-1H-benzo[d]imidazol-6-yl)-1-(4-(methoxy-d3)phenyl)-3,4-dihydropyrido[2,3-d]pyrimidin-2(1H)-one], the IC50 was greater than 1 µM in assay [1], 0.1 to 1 µM in assay [2], less than 0.1 µM in assay [3] and less than 0.1 µM in assay [4].

For the molecule `[2H]C([2H])([2H])Oc1ccc(N2C(=O)N(c3ccc4nn(C)cc4c3)Cc3c(NC)nc(NCC(F)(F)F)nc32)cc1` [Example 432, 1-(4-(methoxy-d3)phenyl)-3-(2-methyl-2H-indazol-5-yl)-5-(methylamino)-7-((2,2,2-trifluoroethyl)amino)-3,4-dihydropyrimido[4,5-d]pyrimidin-2(1H)-one], the IC50 in assay [1] was greater than 1 µM; in assay [2], less than 0.1 µM; in assay [3], less than 0.1 µM; in assay [4] it was less than 0.1 µM.

For the molecule `[2H]C([2H])([2H])Oc1ccc(N2C(=O)N(c3ccc4nc(C)n(C)c4c3)Cc3ccc(OC(C)C)nc32)cc1` [Example 434, 3-(1,2-dimethyl-1H-benzo[d]imidazol-6-yl)-7-isopropoxy-1-(4-(methoxy-d3)phenyl)-3,4-dihydropyrido[2,3-d]pyrimidin-2(1H)-one], the IC50 in assay [1] is 0.1 to 1 µM; in assay [2] it was less than 0.1 µM; in assay [3], less than 0.1 µM; in assay [4] it was less than 0.1 µM.
